Common to all, as to test: Glasshouse assay for herbicidal activity (pre- and post-emergence), percentage phytotoxicity
Format in all cases: in vivo

For one assay, the system named is Lolium perenne (LOLPE). The conditions noted are these: Lolium perenne, rate 250 g/ha. The essentials:
(§1)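 Sow seed in standard soil in pots; apply test herbicide after 1 day (PRE) or about 12 days (POST). Grow on in the glasshouse, watering twice daily, cool-season species at 20/16 °C and warm-season at 24/18 °C. Score visible damage (0–100%) at 20 or 15 DAA respectively.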

Assay [1] concerns Alopecurus myosuroides (ALOMY). The conditions noted are these: Alopecurus myosuroides, rate 250 g/ha. The essentials:
as §1

A further assay concerns Avena fatua (AVEFA). The conditions noted are these: Avena fatua, rate 250 g/ha. The essentials:
as §1

For assay [2], the system named is Echinochloa crus-galli (ECHCG). The conditions noted are these: Echinochloa crus-galli, rate 250 g/ha. The essentials:
as §1

[3] abbreviates: post-emergence, 360 h, POST-emergence, visual score 15 DAA (100%=total damage, 0%=no damage), read-out: Post-emergence herbicidal activity (percentage phytotoxicity) LOLPE POST.
The mark [4] stands for this setting: pre-emergence, 480 h, PRE-emergence, visual score 20 DAA (100%=total damage, 0%=no damage), read-out: Pre-emergence herbicidal activity (percentage phytotoxicity) LOLPE PRE.
The mark [5] stands for this setting: post-emergence, 360 h, POST-emergence, visual score 15 DAA (100%=total damage, 0%=no damage), read-out: Post-emergence herbicidal activity (percentage phytotoxicity) ALOMY POST.
The mark [6] stands for this setting: pre-emergence, 480 h, PRE-emergence, visual score 20 DAA (100%=total damage, 0%=no damage), read-out: Pre-emergence herbicidal activity (percentage phytotoxicity) ALOMY PRE.
Where [7] appears, read: post-emergence, 360 h, POST-emergence, visual score 15 DAA (100%=total damage, 0%=no damage), read-out: Post-emergence herbicidal activity (percentage phytotoxicity) AVEFA POST.
Setting [8] is: pre-emergence, 480 h, PRE-emergence, visual score 20 DAA (100%=total damage, 0%=no damage), read-out: Pre-emergence herbicidal activity (percentage phytotoxicity) AVEFA PRE.
Where [9] appears, read: post-emergence, 360 h, POST-emergence, visual score 15 DAA (100%=total damage, 0%=no damage), read-out: Post-emergence herbicidal activity (percentage phytotoxicity) ECHCG POST.
[10] abbreviates: pre-emergence, 480 h, PRE-emergence, visual score 20 DAA (100%=total damage, 0%=no damage), read-out: Pre-emergence herbicidal activity (percentage phytotoxicity) ECHCG PRE.

Like-named read-outs stand apart in the source and are kept apart here.

In the case of `C/C=C/c1cc(C)c(C2C(=O)CC(CC(=O)N(C)C(C)(C)C)C2=O)c(CC)c1` (stereo not shown) [Compound B274], the pest or weed control at 250 g/ha in the assay on Lolium perenne (LOLPE) (setting [3]) turned out to be 90%; in the assay on Lolium perenne (LOLPE) (setting [4]), 70%; in assay [1] (setting [5]) it was 100%; in assay [1] (setting [6]) it was 70%; with Avena fatua (AVEFA) (setting [7]) it was 100%; in the assay on Avena fatua (AVEFA) (setting [8]), 50%. Besides, the pest or weed control at 250 g/ha in assay [2] (setting [9]) came to 100%; in assay [2] (setting [10]) it was 70%.
On to `Cc1cc(-c2ncc(F)cn2)cc(C)c1C1C(=O)CC(CC(=O)NC(C)C)C1=O` (stereo not shown) [Compound B275], for which the pest or weed control at 250 g/ha (with Lolium perenne (LOLPE) (setting [3]); in the assay with Lolium perenne (LOLPE) (setting [4]); in assay [1] (setting [5]); in assay [1] (setting [6]); in the assay on Avena fatua (AVEFA) (setting [7]); in the assay with Avena fatua (AVEFA) (setting [8])) was 100% throughout. In addition, the pest or weed control at 250 g/ha in assay [2] (setting [9]) and in assay [2] (setting [10]) was 100% throughout.
In the case of `Cc1cc(-c2ncc(F)cn2)cc(C)c1C1C(=O)CC(CC(=O)N2CCOCC2)C1=O` (stereo not shown) [Compound B276], the pest or weed control at 250 g/ha in the assay on Lolium perenne (LOLPE) (setting [3]) was determined as 100%; in the assay with Lolium perenne (LOLPE) (setting [4]), 90%; in assay [1] (setting [5]), 90%; in assay [1] (setting [6]), 100%; in the assay on Avena fatua (AVEFA) (setting [7]), 90%; in the assay with Avena fatua (AVEFA) (setting [8]), 80%. For the same molecule, the pest or weed control at 250 g/ha in assay [2] (setting [9]) and in assay [2] (setting [10]) was 100% each time.
Turning to `CCNC(=O)CC1CC(=O)C(c2c(C)cc(-c3ncc(F)cn3)cc2C)C1=O` (stereo not shown) [Compound B277], the pest or weed control at 250 g/ha (in the assay with Lolium perenne (LOLPE) (setting [3]); in the assay with Lolium perenne (LOLPE) (setting [4]); in assay [1] (setting [5]); in assay [1] (setting [6]); in the assay with Avena fatua (AVEFA) (setting [7]); in the assay with Avena fatua (AVEFA) (setting [8])) was 100% throughout. The pest or weed control at 250 g/ha in assay [2] (setting [9]) and in assay [2] (setting [10]) was 100% each time.
Consider `C=C(C)CNC(=O)CC1CC(=O)C(c2c(C)cc(-c3ncc(F)cn3)cc2C)C1=O` (stereo not shown) [Compound B278], for which the pest or weed control at 250 g/ha with Lolium perenne (LOLPE) (setting [3]) was 90%; in the assay with Lolium perenne (LOLPE) (setting [4]), 100%; in assay [1] (setting [5]) it was 100%; in assay [1] (setting [6]), 100%; with Avena fatua (AVEFA) (setting [7]), 100%; with Avena fatua (AVEFA) (setting [8]), 100%. Moreover, the pest or weed control at 250 g/ha in assay [2] (setting [9]) and in assay [2] (setting [10]) was 100% in each case.
As for `Cc1cc(-c2ncc(F)cn2)cc(C)c1C1C(=O)CC(CC(=O)N(C)C)C1=O` (stereo not shown) [Compound B279], the pest or weed control at 250 g/ha (in the assay with Lolium perenne (LOLPE) (setting [3]); in the assay with Lolium perenne (LOLPE) (setting [4]); in assay [1] (setting [5]); in assay [1] (setting [6]); with Avena fatua (AVEFA) (setting [7]); in the assay on Avena fatua (AVEFA) (setting [8])) was 100% in each case. The pest or weed control at 250 g/ha in assay [2] (setting [9]) and in assay [2] (setting [10]) was 100% throughout.
Turning to `CNC(=O)CC1CC(=O)C(c2c(C)cc(-c3ncc(F)cn3)cc2C)C1=O` (stereo not shown) [Compound B280], the pest or weed control at 250 g/ha (in the assay with Lolium perenne (LOLPE) (setting [3]); in the assay with Lolium perenne (LOLPE) (setting [4]); in assay [1] (setting [5]); in assay [1] (setting [6]); with Avena fatua (AVEFA) (setting [7]); with Avena fatua (AVEFA) (setting [8])) was 100% each time. Besides, the pest or weed control at 250 g/ha in assay [2] (setting [9]) and in assay [2] (setting [10]) was 100% throughout.
As to `COCCN(CCOC)C(=O)CC1CC(=O)C(c2c(C)cc(-c3ncc(F)cn3)cc2C)C1=O` (stereo not shown) [Compound B281], the pest or weed control at 250 g/ha was 90% in the assay with Lolium perenne (LOLPE) (setting [3]); 80% in the assay with Lolium perenne (LOLPE) (setting [4]); 100% in assay [1] (setting [5]); 80% in assay [1] (setting [6]); 100% with Avena fatua (AVEFA) (setting [7]); 80% with Avena fatua (AVEFA) (setting [8]). The pest or weed control at 250 g/ha in assay [2] (setting [9]) and in assay [2] (setting [10]) was 100% in each case.
With `CCNC(=O)CC1CC(=O)C(c2c(C)cc(-c3ncc(Br)cn3)cc2C)C1=O` (stereo not shown) [Compound B282], the pest or weed control at 250 g/ha (in the assay with Lolium perenne (LOLPE) (setting [3]); with Lolium perenne (LOLPE) (setting [4]); in assay [1] (setting [5]); in assay [1] (setting [6]); with Avena fatua (AVEFA) (setting [7]); in the assay with Avena fatua (AVEFA) (setting [8])) was 100% throughout. Further, the pest or weed control at 250 g/ha in assay [2] (setting [9]) and in assay [2] (setting [10]) was 100% in each case.
As to `C=C(C)CNC(=O)CC1CC(=O)C(c2c(C)cc(-c3ncc(Br)cn3)cc2C)C1=O` (stereo not shown) [Compound B283], the pest or weed control at 250 g/ha in the assay on Lolium perenne (LOLPE) (setting [3]) worked out at 100%; in the assay on Lolium perenne (LOLPE) (setting [4]), 100%; in assay [1] (setting [5]), 100%; in assay [1] (setting [6]) it was 100%; in the assay with Avena fatua (AVEFA) (setting [7]) it was 100%; in the assay with Avena fatua (AVEFA) (setting [8]) it was 90%. The pest or weed control at 250 g/ha in assay [2] (setting [9]) and in assay [2] (setting [10]) was 100% in each case.
As to `Cc1cc(-c2ncc(C#N)cn2)cc(C)c1C1C(=O)CC(CC(=O)NCc2cccc(Cl)c2)C1=O` (stereo not shown) [Compound B284], the pest or weed control at 250 g/ha in the assay with Lolium perenne (LOLPE) (setting [3]) stood at 100%; in the assay on Lolium perenne (LOLPE) (setting [4]), 90%; in assay [1] (setting [5]), 100%; in assay [1] (setting [6]) it was 100%; with Avena fatua (AVEFA) (setting [7]), 100%; in the assay with Avena fatua (AVEFA) (setting [8]) it was 70%. Moreover, the pest or weed control at 250 g/ha in assay [2] (setting [9]) and in assay [2] (setting [10]) was 100% in each case.
As for `Cc1cc(-c2ncc(Br)cn2)cc(C)c1C1C(=O)CC(CC(=O)N2CCOCC2)C1=O` (stereo not shown) [Compound B285], the pest or weed control at 250 g/ha was 100% with Lolium perenne (LOLPE) (setting [3]); 100% with Lolium perenne (LOLPE) (setting [4]); 100% in assay [1] (setting [5]); 90% in assay [1] (setting [6]); 100% in the assay on Avena fatua (AVEFA) (setting [7]); 90% in the assay on Avena fatua (AVEFA) (setting [8]). The pest or weed control at 250 g/ha in assay [2] (setting [9]) and in assay [2] (setting [10]) was 100% each time.
With `CCNC(=O)CC1CC(=O)C(c2c(C)cc(-c3ncc(C#N)cn3)cc2C)C1=O` (stereo not shown) [Compound B286], the pest or weed control at 250 g/ha turned out to be 100% in the assay with Lolium perenne (LOLPE) (setting [3]); 90% in the assay with Lolium perenne (LOLPE) (setting [4]); 100% in assay [1] (setting [5]); 100% in assay [1] (setting [6]); 100% in the assay on Avena fatua (AVEFA) (setting [7]); 90% with Avena fatua (AVEFA) (setting [8]). The pest or weed control at 250 g/ha in assay [2] (setting [9]) and in assay [2] (setting [10]) was 100% throughout.
With `C=C(C)CNC(=O)CC1CC(=O)C(c2c(C)cc(-c3ncc(C#N)cn3)cc2C)C1=O` (stereo not shown) [Compound B287], the pest or weed control at 250 g/ha came to 90% with Lolium perenne (LOLPE) (setting [3]); 90% in the assay on Lolium perenne (LOLPE) (setting [4]); 90% in assay [1] (setting [5]); 90% in assay [1] (setting [6]); 100% in the assay with Avena fatua (AVEFA) (setting [7]); 90% in the assay with Avena fatua (AVEFA) (setting [8]). Besides, the pest or weed control at 250 g/ha in assay [2] (setting [9]) and in assay [2] (setting [10]) was 100% throughout.
On to `Cc1cc(-c2ncc(C#N)cn2)cc(C)c1C1C(=O)CC(CC(=O)N2CCOCC2)C1=O` (stereo not shown) [Compound B288], for which the pest or weed control at 250 g/ha with Lolium perenne (LOLPE) (setting [3]) came to 90%; with Lolium perenne (LOLPE) (setting [4]) it was 90%; in assay [1] (setting [5]), 100%; in assay [1] (setting [6]), 80%; in the assay with Avena fatua (AVEFA) (setting [7]), 90%; with Avena fatua (AVEFA) (setting [8]) it was 80%. For the same molecule, the pest or weed control at 250 g/ha in assay [2] (setting [9]) was found to be 100%; in assay [2] (setting [10]), 90%.
On to `Cc1cc(-c2ncc(F)cc2F)cc(C)c1C1C(=O)CC(CC(=O)NC2CC2F)C1=O` (stereo not shown) [Compound B289], for which the pest or weed control at 250 g/ha (in the assay on Lolium perenne (LOLPE) (setting [3]); with Lolium perenne (LOLPE) (setting [4]); in assay [1] (setting [5]); in assay [1] (setting [6]); in the assay on Avena fatua (AVEFA) (setting [7]); with Avena fatua (AVEFA) (setting [8])) was 100% throughout. Moreover, the pest or weed control at 250 g/ha in assay [2] (setting [9]) and in assay [2] (setting [10]) was 100% in each case.
For the molecule `Cc1cc(-c2ncc(F)cc2F)cc(C)c1C1C(=O)CC(CC(=O)NC/C=C/Cl)C1=O` (stereo not shown) [Compound B290], the pest or weed control at 250 g/ha (in the assay with Lolium perenne (LOLPE) (setting [3]); in the assay on Lolium perenne (LOLPE) (setting [4]); in assay [1] (setting [5]); in assay [1] (setting [6]); in the assay on Avena fatua (AVEFA) (setting [7]); in the assay with Avena fatua (AVEFA) (setting [8])) was 100% each time. The pest or weed control at 250 g/ha in assay [2] (setting [9]) and in assay [2] (setting [10]) was 100% in each case.
